# Values joined by “and” are separate entries in the source; they are usually repeats but may differ in a detail not shown here. Identical values can stand only once.
# Legend:
# [1] = tested on: ex vivo T. gondii ME49-FLuc bradyzoites from tissue cysts of chronically infected mice; assay: Ex vivo bradyzoite treatment assay (plaque assay); assay type: cell-based, Toxoplasma gondii; conditions: for growth of ex vivo bradyzoites at EC50: constant treatment, vs DMSO
# Description: The brains from CBA/J mice chronically infected with the ME49-FLuc strain were harvested, homogenized, and tissue cysts isolated on Percoll gradients, as described previously[9],[27]. Following isolation, purified tissue cysts were treated with acid-pepsin solution ([…] sodium chloride (NaCl), 60 mM hydrochloric acid (HCl) and freshly made pepsin (0.1 mg/mL in 1xPBS) for 10 min at 37 °C. Following acid-pepsin treatment and addition of neutralization buffer (94 mM sodium carbonate (Na2CO3), liberated bradyzoites were equally distributed into 6-well plates with 5 mL culture media containing compounds or vehicle control (0.1–0.2% DMSO final concentration). Plates were incubated undisturbed for 12–14 days followed by fixation in 100% ethanol (ETOH) for 5 min at RT, rinsing with tap water, staining in 0.1% crystal violet solution for 10 min at RT, rinsing in water and air drying. Plaques were quantified on a Zeiss AxioObserver microscope equipped with a ×2.5 objective (Department of Molecular Microbiology Imaging Facility at the Washington University School of Medicine).
# [2] = tested on: A549 (human lung carcinoma); assay: in vitro; assay type: cell-based; conditions: EC50 host cell/EC50 T. gondii
# Description: (§1) For the toxicity screen, compounds were tested in 96-well plates using all the wells as no edge affect was observed. Compounds were diluted to 40 μM (2x concentration in 10% DMEM, 0.4% DMSO) before step-wise, 3-fold dilution in 10% DMEM to create 10-dose series (20 μM to 0.001 μM). Host cells were plated in black, μ-Clear 96-well plates (Greiner Bio-One). We compared several lineages including HepG2 (human hepatocellular carcinoma (ATCC-HB-8065)), THP-1 (human monocytic tumor line), SH-SY5Y (human neuroblastoma (ATCC CRL-2266)), A549 (human lung carcinoma (ATCC CRM-CCL-185)) and Caco-2 (human intestinal adenocarcinoma (ATCC HTB-37)) and HFF (primary human foreskin fibroblast) obtained from the laboratory of John Boothroyd at Stanford University. Cells were maintained in culture media according to the formulations recommended by ATCC. Cells were plated at a density (ranging from of 5 × 10^3 to 2 × 10^4 cells/well (100 μL vol)) resulting in sub-confluent monolayers to allow expansion during the 2 day growth assay. THP-1 cells were treated with 10 ng/ml phorbol 12-myristate 13-acetate (PMA) for 24 h to differentiate into macrophages before compound addition. For all other cells, compounds were added at 6 h post seeding to host cells containing plates (200 μL final volume, 0.2% DMSO) and incubated in culture medium at 37 °C supplemented with 5% CO2. At 44 h post compound addition (50 h total growth time), culture media was aspirated and replaced with Live Imaging solution (ThermoFisher) supplemented with 10 μg/mL Hoeschst 33342 (Sigma) for 20 min at 37 °C. […] Alternatively, plates fixed with 4% formaldehyde for 10 min and stained with 10 μg/mL Hoeschst 33342 (Sigma) for 20 min and imaged using a Cytation 3 multi-mode imager (DAPI, 10x objective, 4 images/well) and nuclei quantified using the Gen5 imager software (v3.08). Assays were repeated with two technical replicates within each of two independent biological replicates.
# (§2) All statistical analyses were conducted using Prism 9 (GraphPad Software, Inc.). Dose–response inhibition curves for parasite and host cell toxicity screens (EC50 values) were generated using (Log(inhibitor) vs. normalized response—Variable slope) function. […] For multiple comparisons, two-way ANOVA analysis function using either Sidák’s multiple comparisons test or Dunnett’s multiple comparisons test was applied as indicated.
# [3] = tested on: HepG2 (human hepatocellular carcinoma); assay: in vitro; assay type: cell-based; conditions: EC50 host cell/EC50 T. gondii
# Description: as §1, §2
# [4] = tested on: T. gondii residual infection; assay: ELISA of survivors and bioassay of brain homogenate into naive recipient mice; assay type: in vivo, Ifngr1-/- mice
# Description: Testing of compounds to prevent reactivation of chronic infection was […] to test the efficacy of PheRS inhibitors against chronic infection. In both cases, male and female C57BL/6 Ifngr1^−/− mice were infected by oral gavage with 5 cysts of the ME49-Fluc strain isolated from chronically infected CBA/J mice. Compound BRD7929 was formulated at 1 mg/mL in freshly prepared compound resuspension buffer (vehicle; 10% ETOH, 4% Tween-80 in 1xPBS), aliquoted for single use and stored at −20 °C. In the first protocol, at 48 h post-infection, animals were given sulfadiazine (0.25 g/L in drinking water) for 20 days post-infection to prevent death during acute infection and to allow establishment of chronic infection. Two days after completion of the sulfadiazine treatment, one cohort of mice were treated once a day with 10 mg/kg BRD7929 by oral gavage for 16 days and control mice received an equal volume of vehicle during the same time frame. Animals were monitored for survival and weight loss for 30 days post-treatment. […] All mice were monitored for survival and weight loss every two days for the duration of treatment and for an additional >20 days post-treatment. […] Recipient mice were monitored for 20 days for survival, weight loss, and seroconversion by ELISA.
# [5] = Constant treatment, Fig 5H top 4, replicates
# [6] = Washout, Fig 5H top 4, replicates
structure (smiles),measurement,setting,value
CN(C[C@@H]1[C@H](c2ccc(C#Cc3ccccc3)cc2)[C@@H]2CN(C(=O)Nc3ccc(OC4CC4)cc3)CCCCN12)S(C)(=O)=O [BRD2987],"Ex vivo bradyzoite plaques, normalised to DMSO = 100",[1]; [5],0.5 and 0.7 and 3.9
same,"Ex vivo bradyzoite plaques, normalised to DMSO = 100",[1]; [6],6.522 and 15.2 and 18.2
same,A549 fold selectivity,[2],114.0 fold
COc1ccc(NC(=O)N2CCCCN3[C@H](CO)[C@H](c4ccc(C#Cc5ccccc5)cc4)[C@@H]3C2)cc1 [BRD3444],"Ex vivo bradyzoite plaques, normalised to DMSO = 100",[1]; [5],0.5 and 0.2 and 1.9
same,"Ex vivo bradyzoite plaques, normalised to DMSO = 100",[1]; [6],1.087 and 0.00000000 and 9.1
same,HEPG2 fold selectivity,[3],390.6 fold
COc1ccc(NC(=O)N2CCCCN3[C@H](CN(C)S(C)(=O)=O)[C@H](c4ccc(C#Cc5ccccc5)cc4)[C@@H]3C2)cc1 [BRD8494],"Ex vivo bradyzoite plaques, normalised to DMSO = 100",[1]; [5],0.5 and 0.2 and 1.9
same,"Ex vivo bradyzoite plaques, normalised to DMSO = 100","[1]; Constant, EC50 concentration, Fig 5J",100 and 95.62 and 97.45
same,growth of ex vivo bradyzoites at EC50,[1]; EC50 concentration,did not inhibit the growth
same,growth of ex vivo bradyzoites at higher concentrations,"[1]; EC90 and 3×EC90, constant treatment",nearly eliminated growth
same,"Ex vivo bradyzoite plaques, normalised to DMSO = 100","[1]; Washout, 3xEC90 concentration, Fig 5J",97.62 and 100
same,"Ex vivo bradyzoite plaques, normalised to DMSO = 100","[1]; Washout, EC50 concentration, Fig 5J",100 and 96.6 and 91.18
same,"Ex vivo bradyzoite plaques, normalised to DMSO = 100","[1]; Washout, EC90 concentration, Fig 5J",100
same,"Ex vivo bradyzoite plaques, normalised to DMSO = 100",[1]; [6],1.087 and 0.74 and 4.5
same,HEPG2 fold selectivity,[3],571.4 fold
same,A549 fold selectivity,[2],> 571.4 fold
COc1ccc(NC(=O)N2CCCCN3[C@H](CN(C)C)[C@H](c4ccc(C#Cc5ccccc5)cc4)[C@@H]3C2)cc1 [BRD7929],growth inhibition of ex vivo bradyzoites,"[1]; 3×EC90, constant treatment",99%
same,effect after washout,"[1]; 3×EC90, short-term (4 h) treatment then washout",sustained following washout
same,"Ex vivo bradyzoite plaques, normalised to DMSO = 100",[1]; [5],1.0 and 0.2 and 1.9
same,growth of ex vivo bradyzoites at EC50,[1]; EC50 concentration,only partially reduced growth
same,growth inhibition of ex vivo bradyzoites,"[1]; EC90, constant treatment",93%
same,"Ex vivo bradyzoite plaques, normalised to DMSO = 100","[1]; Washout, EC50 concentration, Fig 5I",66.67 and 75.15 and 100
same,"Ex vivo bradyzoite plaques, normalised to DMSO = 100","[1]; Washout, EC90 concentration, Fig 5I",83.91
same,"Ex vivo bradyzoite plaques, normalised to DMSO = 100",[1]; [6],2.174 and 0.37 and 0.00000000
same,bioassay of brains of surviving treated mice in naive recipients,"[4]; oral challenge model survivors, recipients monitored 20 days",All recipient mice survived and remained seronegative
same,bioassay of brain homogenate of the surviving animal,[4]; reactivation model survivor,failed to detect any residual infection
